Assays:
[1] = tested on: DAOY medulloblastoma cells; assay: Cell cycle analysis by flow cytometry after release from G1/S block; format: cell-based, human; conditions: for G0/G1 / G2/M / S: DAOY released from G1/S block
Procedure: (§1) DNA was stained with 100 μg/ml propidium iodide (PI) in hypotonic citrate buffer with 20 μg/ml ribonuclease A. Stained nuclei were analyzed for DNA-PI fluorescence using an Accuri C6 flow cytometer (Accuri Cytometers Inc., Ann Arbor, Mich.). Resulting DNA distributions for sub G0/G1, G0/G1, S and G2/M phase of the cell cycle were analyzed with CFlow plus software (Accuri Cytometers Inc).
(§2) For analysis of cell cycle profiles after mitotic block, cells were synchronized with 2 mM thymidine for 24 hours. The block was released for 3 hours and cells were arrested in prometaphase with 100 nM nocodazole for 12 hours. For G1/S arrest, cells were synchronized for 18 hours with 2 mM thymidine, released for 9 hours, followed by a second thymidine arrest for 18 hours. The block was then released in the presence of DMSO or curcumin as indicated and the cells were processed as described above.
as §1, with “software (Accuri Cytometers. Inc).” for “software (Accuri Cytometers Inc).”
as §2, with “above. […] The data from these cell cycle studies are the mean±SEM of three independent experiments.” for “above.”
At 0, 4, 8, 12, 16 and 20 hours, cell cycle progression was analyzed by flow cytometry.

[2] = biological target: T1, Cdc27 (Homo sapiens, UniProt P30260); assay: Pull-down from DAOY cell lysates with curcumin-bound Sepharose beads; format: binding; conditions: two independent bead preparations, vs control beads
T1 construct: endogenous in cells; host or cells: DAOY medulloblastoma cells
T1 sequence (P30260 1-830 isoform P30260-2): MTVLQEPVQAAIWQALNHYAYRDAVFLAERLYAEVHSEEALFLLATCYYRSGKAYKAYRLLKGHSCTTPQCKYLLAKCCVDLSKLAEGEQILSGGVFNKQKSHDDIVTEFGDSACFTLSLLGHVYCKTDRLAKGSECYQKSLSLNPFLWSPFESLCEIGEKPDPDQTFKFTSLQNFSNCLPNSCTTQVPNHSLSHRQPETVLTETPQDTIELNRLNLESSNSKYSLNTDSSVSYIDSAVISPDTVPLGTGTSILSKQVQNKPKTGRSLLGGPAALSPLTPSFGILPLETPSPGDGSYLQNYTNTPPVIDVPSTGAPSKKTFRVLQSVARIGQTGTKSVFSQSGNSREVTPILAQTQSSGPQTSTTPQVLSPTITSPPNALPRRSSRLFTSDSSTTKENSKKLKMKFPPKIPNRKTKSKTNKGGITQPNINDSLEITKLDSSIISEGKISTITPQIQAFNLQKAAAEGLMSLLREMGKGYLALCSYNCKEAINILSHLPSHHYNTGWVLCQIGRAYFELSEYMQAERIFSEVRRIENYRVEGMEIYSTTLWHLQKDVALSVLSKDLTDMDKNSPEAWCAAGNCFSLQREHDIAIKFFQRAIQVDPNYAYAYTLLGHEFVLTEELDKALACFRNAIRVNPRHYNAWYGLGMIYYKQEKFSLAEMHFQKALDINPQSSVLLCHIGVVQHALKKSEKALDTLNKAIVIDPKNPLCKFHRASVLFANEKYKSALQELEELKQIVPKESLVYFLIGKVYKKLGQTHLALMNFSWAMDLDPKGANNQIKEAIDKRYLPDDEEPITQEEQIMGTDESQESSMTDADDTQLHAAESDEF
Procedure: After washing, unoccupied binding sites were blocked with 1 M ethanolamine by overnight incubation. Low (0.1 M acetate buffer, pH 4) and high (0.1 M Tris-HCl, pH 8, 0.5 M NaCl) pH buffers were used each three times to wash and equilibrate the beads. Control beads were prepared in parallel with curcumin-coupled beads but curcumin was omitted. DAOY cell lysates were prepared in a lysis buffer of 100 mM HEPES, pH 7.6, 300 mM NaCl, 0.1% Triton X-100, 2 mM EDTA, 2 mM EGTA supplemented with phosphatase and protease inhibitors. 500 μg of protein was mixed with 20 μl of curcumin-coupled Sepharose beads and incubated for 3 hours at 4° C. After washing bound proteins were eluted with 1×SDS-PAGE sample buffer and processed for immunoblotting.
DAOY cell lysates were incubated with curcumin-bound Sepharose beads and then subjected to SDS-PAGE and immunoblotting with Cdc27. A BubR1 immunoblot was included as control for non-specific binding. […] The cell lysates were separated by SDS-PAGE and immunoblotted for Cdc27. […] Data represent mean±SEM of three independent experiments.

[3] = tested on: Cdc27, cyclin B1, securin, cyclin D1, APC2, p55Cdc20; assay: Immunoblotting of DAOY cells released from mitotic block; format: cell-based, human
Procedure: Cell lysates were prepared in a buffer containing 20 mM Tris (pH 7.5), 150 mM NaCl, 1 mM EDTA, 1 mM EGTA, 0.1% Triton X-100, 2.5 mM sodium pyrophosphate, 1 mM β-glycerol phosphate, 1 mM sodium vanadate, 1 mM phenylmethylsulfonyl fluoride and 5 μg/ml of antipapain, leupeptin and pepstatin (protease inhibitor cocktail). Protein concentrations were determined by the Dc protein assay (Bio-Rad, Hercules, Calif.). Equal amounts of protein were resolved by SDS-PAGE and transferred to nitrocellulose. The membranes were blocked in 5% non-fat milk in Tris-buffered saline with 0.1% […] (TBST). Primary antibodies diluted in 5% bovine serum albumin/TBST were incubated overnight at 4° C. and HRP-conjugated secondary antibodies in 5% non-fat milk/TBST for 2 hours at room temperature. Protein bands were visualized by Enhanced Chemiluminescence Plus (GE Healthcare, Piscataway, N.J.).

[4] = tested on: acetylated tubulin; assay: Acetylated tubulin accumulation in cell lines; format: cell-based; conditions: cells with low levels of phosphorylated Cdc27; 20 μM curcumin for 0, 4, 8 and 24 hours
Procedure: Accumulation of acetylated tubulin was assayed. […] Thus, loss of Cdc27 function or p55Cdc20 association with Cdc27 may be linked to increased tubulin acetylation in curcumin-treated cells.

[5] = biological target: T2, cystic fibrosis transmembrane conductance regulator (CFTR) (Homo sapiens, UniProt P13569); conditions: in microsomes and in intact cells; cited from earlier work
T2 construct: host or cells: microsomes and intact cells (not further described)
T2 sequence (P13569 whole entry, species assumed): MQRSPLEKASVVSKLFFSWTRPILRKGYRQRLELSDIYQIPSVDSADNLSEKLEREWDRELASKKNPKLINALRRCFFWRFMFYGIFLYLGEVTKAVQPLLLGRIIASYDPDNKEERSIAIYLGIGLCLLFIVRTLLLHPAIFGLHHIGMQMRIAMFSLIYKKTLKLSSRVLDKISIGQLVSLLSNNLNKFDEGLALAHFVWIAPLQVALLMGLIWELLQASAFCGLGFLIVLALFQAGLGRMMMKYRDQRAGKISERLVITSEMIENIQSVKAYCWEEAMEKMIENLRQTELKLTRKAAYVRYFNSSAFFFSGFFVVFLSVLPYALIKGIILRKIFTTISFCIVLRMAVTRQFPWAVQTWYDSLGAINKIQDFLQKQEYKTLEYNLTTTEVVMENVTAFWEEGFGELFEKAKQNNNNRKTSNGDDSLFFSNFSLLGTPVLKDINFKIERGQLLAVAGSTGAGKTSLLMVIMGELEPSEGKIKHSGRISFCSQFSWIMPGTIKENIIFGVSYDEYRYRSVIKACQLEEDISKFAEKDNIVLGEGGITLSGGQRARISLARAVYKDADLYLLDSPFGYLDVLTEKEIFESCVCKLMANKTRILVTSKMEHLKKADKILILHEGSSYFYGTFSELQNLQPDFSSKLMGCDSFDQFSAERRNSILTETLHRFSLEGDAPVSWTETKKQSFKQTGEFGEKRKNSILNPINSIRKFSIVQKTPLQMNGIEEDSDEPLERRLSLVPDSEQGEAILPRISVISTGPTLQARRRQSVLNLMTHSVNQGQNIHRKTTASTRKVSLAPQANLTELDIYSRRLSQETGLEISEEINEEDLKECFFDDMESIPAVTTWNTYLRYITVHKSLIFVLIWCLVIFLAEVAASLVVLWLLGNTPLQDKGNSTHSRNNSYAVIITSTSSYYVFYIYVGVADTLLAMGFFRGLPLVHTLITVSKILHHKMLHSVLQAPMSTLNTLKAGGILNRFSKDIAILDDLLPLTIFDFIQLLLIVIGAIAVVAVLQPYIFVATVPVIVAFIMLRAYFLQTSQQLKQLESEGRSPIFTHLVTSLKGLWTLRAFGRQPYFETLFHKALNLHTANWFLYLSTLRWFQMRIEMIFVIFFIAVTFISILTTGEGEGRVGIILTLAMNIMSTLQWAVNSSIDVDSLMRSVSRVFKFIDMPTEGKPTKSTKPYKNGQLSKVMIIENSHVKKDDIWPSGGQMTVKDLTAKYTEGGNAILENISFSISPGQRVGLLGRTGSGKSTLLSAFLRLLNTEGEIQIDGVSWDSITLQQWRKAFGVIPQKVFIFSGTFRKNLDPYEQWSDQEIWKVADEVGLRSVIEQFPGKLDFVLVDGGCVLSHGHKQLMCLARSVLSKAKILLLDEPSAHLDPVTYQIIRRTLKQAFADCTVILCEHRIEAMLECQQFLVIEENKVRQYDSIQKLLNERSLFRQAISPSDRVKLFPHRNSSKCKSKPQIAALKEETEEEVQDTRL

SMILES: COc1cc(/C=C/C(=O)CC(=O)/C=C/c2ccc(O)c(OC)c2)ccc1O [Curcumin, (E,E)-1,7-bis(4-hydroxy-3-methoxyphenyl)-1,6-heptadiene-3,5-dion]
- cells that had not re-entered G0/G1 ([1]; 20 μM curcumin, 20 hours after removal of the thymidine block): 56.9%
- time after release at which cells reached G2/M ([1]; DAOY released from G1/S block in the presence of 10 μM curcumin (control 8-12 hours)): 12 to 16 h
- time after release at which cells reached G2/M ([1]; DAOY released from G1/S block in the presence of 20 μM curcumin (control 8-12 hours)): 16 to 20 h
- sub-G0/G1 signal (apoptosis) ([1]; DAOY released from G1/S block with curcumin, up to 20 hours): no sub-G0/G1 signal, was detected
- G0/G1 ([1]; 10 μM Curcumin, 0 Hr): 48.15 ± 0.32%
- G2/M ([1]; 10 μM Curcumin, 0 Hr): 32.96 ± 1.97%
- S ([1]; 10 μM Curcumin, 0 Hr): 18.89 ± 2.17%
- G0/G1 ([1]; 10 μM Curcumin, 4 Hr): 41.92 ± 5.16%
- G2/M ([1]; 10 μM Curcumin, 4 Hr): 25.88 ± 3.55%
- S ([1]; 10 μM Curcumin, 4 Hr): 32.13 ± 2.64%
- G0/G1 ([1]; 10 μM Curcumin, 8 Hr): 24.94 ± 4.83%
- G2/M ([1]; 10 μM Curcumin, 8 Hr): 35.33 ± 5.04%
- S ([1]; 10 μM Curcumin, 8 Hr): 39.71 ± 4.45%
- G0/G1 ([1]; 10 μM Curcumin, 12 Hr): 32.40 ± 8.28%
- G2/M ([1]; 10 μM Curcumin, 12 Hr): 44.92 ± 11.40%
- S ([1]; 10 μM Curcumin, 12 Hr): 22.71 ± 3.49%
- G0/G1 ([1]; 10 μM Curcumin, 16 Hr): 42.40 ± 6.35%
- G2/M ([1]; 10 μM Curcumin, 16 Hr): 34.85 ± 9.11%
- S ([1]; 10 μM Curcumin, 16 Hr): 22.75 ± 3.63%
- G0/G1 ([1]; 10 μM Curcumin, 20 Hr): 46.46 ± 2.96%
- G2/M ([1]; 10 μM Curcumin, 20 Hr): 29.88 ± 3.86%
- S ([1]; 10 μM Curcumin, 20 Hr): 23.66 ± 4.26%
- G0/G1 ([1]; 20 μM Curcumin, 0 Hr): 48.15 ± 0.32%
- G2/M ([1]; 20 μM Curcumin, 0 Hr): 32.96 ± 1.97%
- S ([1]; 20 μM Curcumin, 0 Hr): 18.89 ± 2.17%
- G0/G1 ([1]; 20 μM Curcumin, 4 Hr): 40.18 ± 5.31%
- G2/M ([1]; 20 μM Curcumin, 4 Hr): 28.33 ± 1.56%
- S ([1]; 20 μM Curcumin, 4 Hr): 31.55 ± 3.94%
- G0/G1 ([1]; 20 μM Curcumin, 8 Hr): 31.66 ± 3.64%
- G2/M ([1]; 20 μM Curcumin, 8 Hr): 31.58 ± 2.35%
- S ([1]; 20 μM Curcumin, 8 Hr): 36.76 ± 2.49%
- G0/G1 ([1]; 20 μM Curcumin, 12 Hr): 21.69 ± 2.77%
- G2/M ([1]; 20 μM Curcumin, 12 Hr): 40.44 ± 3.95%
- S ([1]; 20 μM Curcumin, 12 Hr): 37.87 ± 3.29%
- G0/G1 ([1]; 20 μM Curcumin, 16 Hr): 20.99 ± 2.17%
- G2/M ([1]; 20 μM Curcumin, 16 Hr): 48.68 ± 5.04%
- S ([1]; 20 μM Curcumin, 16 Hr): 30.34 ± 4.57%
- G0/G1 ([1]; 20 μM Curcumin, 20 Hr): 27.44 ± 4.69%
- G2/M ([1]; 20 μM Curcumin, 20 Hr): 43.06 ± 5.04%
- S ([1]; 20 μM Curcumin, 20 Hr): 29.53 ± 0.59%
- pull-down of Cdc27 by curcumin-bound Sepharose beads [2]: pulled down Cdc27
- dephosphorylation of Cdc27 over time after release of the mitotic block ([3]; 20 and 40 μM curcumin vs DMSO): not observed
- decreases in the cyclin B1 and securin levels after release of the mitotic block ([3]; 20 and 40 μM curcumin vs control): not found
- levels of APC2, p55Cdc20 or cyclin D1 ([3]; control vs curcumin-treated cells): no significant differences
- curcumin-induced tubulin acetylation [4]: reduced
- crosslinking of CFTR polypeptides [5]: can crosslink CFTR polypeptides into SDS-resistant oligomers
